Where two headings read alike, the source gives them in different places.

One series relates to HIV. The note with it: in vitro resistance studies; cited from earlier work.
The subject of a further series is HIV-1IIIB. The experiment in a line: HIV MAGI assay, HIV-1IIIB. In kind it is cell-based. The following applies: Human immunodeficiency virus 1, MAGI; for EC50: Table 1, read-out: HIV MAGI EC50 HIVIIIB. The protocol:
(§1) HIV-1 and MAGI Tropism assays can be used to establish activity/cytotoxicity and synergy studies and ADME profiles of compounds are evaluated using in vitro assays such as CYP2D6/3A4 assays and metabolic stability in human and mouse liver microsomes (See Tables 2 and 3).

Another series concerns HIV-1BaL. The experiment in a line: HIV MAGI assay, HIV-1BaL. In kind it is cell-based. The note with it: Human immunodeficiency virus 1, MAGI; for EC50: Table 1, read-out: HIV MAGI EC50 HIVBa-L. As for the experimental part: as §1
For the next series, the target named is CYP2D6 (Homo sapiens (Human), UniProt P10635). The experiment in a line: Recombinant CYP inhibition assay (fluorometric), CYP2D6. The following applies: for IC50: Table 1. In kind it is in vitro ADME. An excerpt:
(§2) Recombinant CYP Inhibition Assay: In a drug discovery program, a rapid screening for cyctochrome P450 (CYP450) inhibitors is a part of the existing standard for avoiding the development of drugs likely to give clinical pharmacokinetic drug-drug interactions and associated toxicities. A microtiter plate-based, direct fluorometric assay for the activities of the principal human drug-metabolizing enzymes, CYP2D6 and CYP3A4 can be used and these assays are rapid and compatible with existing high-throughput assay instrumentation.
(§3) Fluorometric Enzyme Inhibition Assays: Test compounds were dissolved in 100% organic solvent (CH3CN or DMSO) to make 30 mM stock solutions. […] A 100 mM potassium phosphate buffer was prepared and adjusted to pH 7.4. The 30 mM stock solution of test and control compounds (1 mM) were further diluted in phosphate buffer (100 mM, pH 7.4) to ensure the final organic solvent content was <0.2% in the reaction. In a separate falcon tube, a 2× enzyme/substrate (E/S) solution was prepared in phosphate buffer. The final concentration of CYP2D6 (Corning) and AMMC was 10 nM and 4 μM, and CYP3A4 (Corning) and BFC was 20 nM and 40 μM, respectively. In a separate falcon tube, a 2× NADPH regenerating system (NRS) was prepared in phosphate buffer. The final concentration for each component in the assay was as follows: • CYP2D6 assay=0.008 mM NADPH, 3.3 mM glucose 6-phosphate, 0.4 U of glucose-6-phosphate dehydrogenase/mL • CYP3A4 assay=2.45 mM NADPH, 24.7 mM glucose 6-phosphate, 1.25 U of glucose-6-phosphate dehydrogenase/mL
(§4) Both enzymatic assays were conducted in a 96-well microtiter plate (Black, Corning Costar) with a final volume of 100 μL. Preparation of the plate began with the addition of 74 μL of the E/S in the first well, and 50 μL to all subsequent wells (from 2-11). The test compounds (1 μL) were dissolved in the first well to give the first row a final volume of 75 μL. A 1:3 serial dilution of the test compound was conducted by removing 25 μL from the first well and diluting it with the second and so forth until the tenth row. Final concentrations yielded a range from 300 μM-0.01 μM. Well 11 contained no enzyme, and well 12 contained no inhibitor. Both were used as controls for background fluorescence. The plate was incubated for 10 min at 37° C. for CYP2D6, and 30 mins for CYP3A4. After incubation, the reaction was initiated by the addition of 50 μL of the 2× NRS to each well.
(§5) Immediately (within 1 min) the fluorescence was measured using a microplate reader (KC4, BioTek). CYP2D6 was monitored at Ex/Em=410/460 nm, and CYP3A4 monitored at Ex/Em=410/538 nm in kinetic mode that scanned every 5 min for 60 mins. Data was exported and corrected for background noise by subtracting the blank from the mean value of all other columns. […]

The next series deals with CYP3A4 (Homo sapiens (Human), UniProt P08684). The experiment in a line: Recombinant CYP inhibition assay (fluorometric), CYP3A4. In kind it is in vitro ADME. The following applies: for IC50: Table 1.
Source text: as §2, §3, §4, §5

For series [1] the following is noted: for Relative % remaining, human liver microsomes / HLM: both, 3 μM, pH 7.4; for HLM: human, microsomes. As for the experimental part: Human Liver Microsomes: Pooled mixed gender human liver microsomes at a concentration of 20 mg/mL were purchased from XenoTech (Kansas City, Kans.). The vials of microsomes were stored at −80° C. and thawed on ice before each experiment. The microsomes were diluted to 1 mg/mL with 100 mM potassium phosphate buffer (pH 7.4).
Experimental Conditions: Test compounds were weighed and dissolved in 100% acetonitrile to make 2 mM stock solutions. […] The 2 mM stock solution of test and control compounds were further diluted in sodium phosphate buffer (100 mM, pH 7.4) to 50 μM to ensure the acetonitrile content was <0.2%.
The liver microsome assay was prepared in a 1.5 mL Eppendorf tube (Fisher Scientific) with a final volume of 1100 μL. Each reaction contained sodium phosphate buffer, liver microsomes (1 mg/mL), and test compound resulting in a final concentration of 3 μM. Following a 5 min pre-incubation of drug and microsomes in a 37° C. shaking incubator, the reaction was initiated with NADPH (110 μL). Aliquots (100 μL) were removed in duplicate at 0, 5, 10, 15, and […] and quenched in cold acetonitrile (200 μL). The aliquots were centrifuged at 12,000 g for 5 min and the supernatant removed and placed in an LCMS vial. […] A no NADPH negative control with test and control compound was conducted in singlet (150 μL) at the longest time point. Controls were processed and analyzed like test compounds.
An Agilent Technologies LCMS system consisting of an Agilent 6120 quadrupole mass spectrometer equipped with an Agilent 1200 binary pump, degasser, and auto sampler (Santa Clara, Calif.). The analytical column used for analysis was an XDB-Eclipse Plus C18 column (4.6 mm×150 mm column; Agilent Technologies). The mobile phase for the HPLC was 50 mM ammonium formate buffer, pH 3.5 (A) and acetonitrile (B). The samples were analyzed using the following 8-minute method: A linear gradient from 10% B to 95% B over for 5 minutes, with a 3 min hold at 95%. An equilibration at 10% B for 5 min was conducted after each run. Sample injection volume was 10 μL and the flow rate was 1.0 mL/min. Single ion monitoring of the mass in positive mode was conducted the molecular weight for each compound. Each time point was assessed on the LCMS and the area, based on the extracted ion, was manually integrated.
Calculations: The depletion of the compound was monitored as a function of time, and the area under the curve was manually integrated. The relative percent remaining was calculated using: Relative % remaining=AreaTime/AreaTime=0*100. The relative percentages for the duplicate runs were averaged and the standard deviations were calculated. Metabolism data averaged duplicates.

The nature of series [2]: Mouse liver microsomes assay. The following applies: for Relative % remaining, mouse liver microsomes: 3 μM compound, 1 mg/mL microsomes; for MLM: @ 10 min, Table 1. In kind it is in vitro ADME. The protocol: Controls were processed and analyzed like test compounds. […] The relative percent remaining was calculated using: Relative % remaining=[…]=0*100. […] Metabolism data averaged duplicates.
Background: Microsomes from liver hold many membrane-bound enzymes, among them those of drug oxidation.

For series [3], the system named is MAGI. The experiment in a line: Cytotoxicity in MAGI HIV-1IIIB assay. The note with it: Table 3. The format is cell-based. As for the experimental part: as §1
Series [4] has as its system MAGI. The experiment in a line: Cytotoxicity in MAGI HIV-1BaL assay. The note with it: Table 3; head prints TC90. In kind it is cell-based. As for the experimental part: as §1

Sequence of CYP3A4 (P08684 whole entry): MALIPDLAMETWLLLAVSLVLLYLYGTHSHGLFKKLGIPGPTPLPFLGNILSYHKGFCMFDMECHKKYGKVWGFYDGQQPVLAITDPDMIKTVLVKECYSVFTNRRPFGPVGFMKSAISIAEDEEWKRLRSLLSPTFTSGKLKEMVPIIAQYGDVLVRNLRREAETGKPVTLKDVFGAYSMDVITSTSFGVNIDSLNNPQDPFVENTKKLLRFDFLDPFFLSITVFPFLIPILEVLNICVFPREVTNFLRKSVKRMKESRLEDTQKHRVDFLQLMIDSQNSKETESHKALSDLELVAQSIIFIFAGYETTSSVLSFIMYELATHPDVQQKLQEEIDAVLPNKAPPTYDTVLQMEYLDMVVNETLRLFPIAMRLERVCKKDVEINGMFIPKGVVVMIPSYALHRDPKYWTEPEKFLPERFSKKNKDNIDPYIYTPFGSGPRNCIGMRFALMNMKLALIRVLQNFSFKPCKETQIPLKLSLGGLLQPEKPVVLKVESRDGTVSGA
Sequence of CYP2D6 (P10635 whole entry): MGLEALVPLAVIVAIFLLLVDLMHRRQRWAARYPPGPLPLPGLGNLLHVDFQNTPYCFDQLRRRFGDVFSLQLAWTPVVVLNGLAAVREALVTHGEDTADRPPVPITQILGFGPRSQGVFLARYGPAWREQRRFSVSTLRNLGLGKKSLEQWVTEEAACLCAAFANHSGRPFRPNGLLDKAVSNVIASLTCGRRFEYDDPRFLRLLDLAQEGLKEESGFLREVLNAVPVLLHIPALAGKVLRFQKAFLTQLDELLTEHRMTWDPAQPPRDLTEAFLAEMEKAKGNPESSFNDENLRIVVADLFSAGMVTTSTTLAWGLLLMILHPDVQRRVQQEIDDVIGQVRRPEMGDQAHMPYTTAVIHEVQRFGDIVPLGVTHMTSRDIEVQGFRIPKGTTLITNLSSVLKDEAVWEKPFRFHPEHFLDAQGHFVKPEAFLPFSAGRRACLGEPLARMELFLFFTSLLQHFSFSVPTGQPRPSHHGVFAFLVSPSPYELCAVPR

Take `c1cc(CN2CCCNCCNCCCNCC2)ccc1CN1CCCNCCNCCCNCC1` [AMD3100]: the “Passages required to develop resistance” value with HIV is listed as 63 passages.
The EC50 is the concentration needed to bring the measured effect to its halfway point. A word on the IC50: it is the point on the concentration scale where inhibition reaches its midpoint. As to `NCCCCN(C[C@@H]1CN(CC[C@H](NC(=O)C2CCC(F)(F)CC2)c2ccccc2)CCN1)[C@H]1CCCc2cccnc21` [Compound 1], the EC50 amounted to 220 nM in the series on HIV-1IIIB and 2600 nM with HIV-1BaL. Also, the half-maximal inhibitory concentration (IC50) at CYP2D6 and on CYP3A4 was > 20000 nM in each case. Also, the “Relative % remaining, human liver microsomes” value in [1] (10 min) is reported as 58 ± 4.9%; in series [1] (0.5 h), 25 ± 0.1%. Also, in series [1] (10 min), the HLM was determined as 58% @ 10 min. For the same compound, the results for the “Relative % remaining, mouse liver microsomes” value in [2] (10 min) and in [2] (30 min) were 116 ± 3.1% and 93 ± 8.9%, respectively. For the same compound, the MLM in series [2] is listed as 100% @ 10 min.
In the case of `Cc1ccnc2c1NC(=O)c1cccnc1N2C1CC1` [nevirapine], the “Passages required to develop resistance” value in the series with HIV is recorded as 2 passages.
For orientation: IC90 means the concentration at which the effect reaches the 90% level. On to `NCCCCN(C[C@H]1CN(CC[C@H](NC(=O)C2CCC(F)(F)CC2)c2ccccc2)CCN1)[C@H]1CCCc2cccnc21` [Compound 2], for which the half-inhibitory concentration (IC50) was 70 nM with HIV-1IIIB (Table 3), 2610 nM in the series with HIV-1BaL (Table 3), > 20000 nM on CYP2D6 and > 20000 nM at CYP3A4. For the same compound, the results for the IC90 in the series on HIV-1IIIB (Table 3) and in the series with HIV-1BaL (Table 3) were 680 nM and 29100 nM, respectively. Also, the EC50 stood at 70 nM with HIV-1IIIB and 2610 nM in the series with HIV-1BaL. In the series on MAGI [3], the “MAGI HIV-1IIIB TC50” value is >10000 nM. Moreover, in the series on MAGI [4], the “MAGI HIV-1BaL TC90” value stood at 33100 nM. The “Inhibition of cytochrome P450 isoform 2D6 (in words)” value on CYP2D6 (preliminary ADME screening) is listed as “does not inhibit”. Also, the “Inhibition of cytochrome P450 isoform 3A4 (in words)” value on CYP3A4 (preliminary ADME screening) is recorded as “does not inhibit”. Besides, the “Stability in human liver microsomes (in words)” value in [1] was “good stability”. For the same compound, the “Relative % remaining, human liver microsomes” value in series [1] (10 min) is 65 ± 8.6%; in [1] (0.5 h), 78 ± 2.2%. The same compound came in with an HLM in [1] (10 min) of 65% @ 10 min. In addition, in [2], the “Stability in mouse liver microsomes (in words)” value was “good stability”. In addition, the entries for the “Relative % remaining, mouse liver microsomes” value in series [2] (10 min) and in series [2] (30 min) were 95 ± 7.2% and 96 ± 6.5%, respectively. In series [2], this compound came in with an MLM of 95% @ 10 min.
Usually inhibition stands for the relative decrease from the control value, in per cent. Turning to `NCCCCN(Cc1nc2ccccc2[nH]1)[C@H]1CCCc2cccnc21` [AMD11070, reference compound], on CYP2D6 (human, recombinant CYP2D6, pH 7.4, probe AMMC (4 μM), at 1 μM, read-out: Inhibition of P450 2D6), the inhibition at 60 min, 1 µM was determined as 100%. In addition, the “Inhibition of P450 3A4” value at CYP3A4 (at 1 μM) was 35%.
On to `Cc1cn([C@H]2C[C@H](N=[N+]=[N-])[C@@H](CO)O2)c(=O)[nH]c1=O` [AZT], for which the “Passages required to develop resistance” value with HIV is reported as 11 passages.
Consider `Cc1ccc(-c2ccc3c(c2)C=C(C(=O)Nc2ccc(C[N+](C)(C)C4CCOCC4)cc2)CCC3)cc1.[Cl-]` [TAK-779], for which the “Passages required to develop resistance” value with HIV is recorded as 41 passages.

The record behind these values is US11649235B2, “Pan-tropic entry inhibitors” (Emory University, priority 2018, dated 2023).
